From the NIST ThermoML archive (doi:10.1016/j.fluid.2018.09.026)
Several values for one entry are separate records, joined by “and”; a condition that tells them apart may be missing. Identical values can stand only once.

Settings: Liquid; for mass density: Vibrating tube method; for viscosity: Vibrating wire viscometry

OCCOCCO [diethylene glycol]
Settings	mass density	viscosity
323.15 K, 19770 kPa	1103.6 kg/m3	–
323.15 K, 24680 kPa	1105.8 kg/m3	–
323.15 K, 29600 kPa	1108 kg/m3	–
323.15 K, 34530 kPa	1110.1 kg/m3	–
323.15 K, 39360 kPa	1112.2 kg/m3	–
323.15 K, 44290 kPa	1114.3 kg/m3	–
323.15 K, 49260 kPa	1116.3 kg/m3	–
323.15 K, 54100 kPa	1118.2 kg/m3	–
323.15 K, 59060 kPa	1120.2 kg/m3	–
323.15 K, 63880 kPa	1122 kg/m3	–
323.15 K, 68770 kPa	1123.8 kg/m3	–
333.15 K, 100 kPa	1087 kg/m3	–
333.15 K, 660 kPa	1087.3 kg/m3	–
333.15 K, 1120 kPa	1087.5 kg/m3	–
333.15 K, 1630 kPa	1087.8 kg/m3	–
333.15 K, 2100 kPa	1088 kg/m3	–
333.15 K, 3070 kPa	1088.5 kg/m3	–
333.15 K, 5060 kPa	1089.5 kg/m3	–
333.15 K, 7050 kPa	1090.5 kg/m3	–
333.15 K, 9930 kPa	1091.9 kg/m3	–
333.15 K, 14780 kPa	1094.3 kg/m3	–
333.15 K, 19770 kPa	1096.7 kg/m3	–
333.15 K, 24660 kPa	1099 kg/m3	–
333.15 K, 29540 kPa	1101.2 kg/m3	–
333.15 K, 34500 kPa	1103.4 kg/m3	–
333.15 K, 39330 kPa	1105.5 kg/m3	–
333.15 K, 44230 kPa	1107.6 kg/m3	–
333.15 K, 49130 kPa	1109.7 kg/m3	–
333.15 K, 54060 kPa	1111.7 kg/m3	–
333.15 K, 59020 kPa	1113.7 kg/m3	–
333.15 K, 63840 kPa	1115.7 kg/m3	–
333.15 K, 68830 kPa	1117.5 kg/m3	–
333.28 K, 210 kPa	–	7.305 mPa·s [middle of 6 runs]
333.28 K, 1080 kPa	–	7.347 mPa·s and 7.376 mPa·s and 7.374 mPa·s
333.28 K, 2290 kPa	–	7.397 mPa·s [middle of 6 runs]
333.28 K, 5100 kPa	–	7.491 mPa·s
333.28 K, 5110 kPa	–	7.506 mPa·s and 7.492 mPa·s
333.28 K, 5120 kPa	–	7.53 mPa·s and 7.547 mPa·s
333.28 K, 10340 kPa	–	7.758 mPa·s and 7.739 mPa·s
333.28 K, 10360 kPa	–	7.749 mPa·s and 7.734 mPa·s
333.28 K, 19960 kPa	–	8.178 mPa·s [middle of 5 runs]
333.28 K, 30150 kPa	–	8.721 mPa·s and 8.673 mPa·s
333.28 K, 30160 kPa	–	8.678 mPa·s and 8.671 mPa·s
333.28 K, 40000 kPa	–	9.197 mPa·s
333.28 K, 40010 kPa	–	9.192 mPa·s and 9.199 mPa·s and 9.178 mPa·s
333.28 K, 50250 kPa	–	9.728 mPa·s and 9.806 mPa·s
333.28 K, 50260 kPa	–	9.736 mPa·s
333.28 K, 68880 kPa	–	10.71 mPa·s
333.28 K, 69100 kPa	–	10.77 mPa·s
333.28 K, 69180 kPa	–	10.8 mPa·s
342.75 K, 250 kPa	–	5.567 mPa·s and 5.585 mPa·s and 5.609 mPa·s
342.75 K, 260 kPa	–	5.588 mPa·s and 5.573 mPa·s
342.75 K, 1040 kPa	–	5.634 mPa·s [middle of 5 runs]
342.75 K, 2130 kPa	–	5.655 mPa·s [middle of 5 runs]
342.75 K, 5010 kPa	–	5.77 mPa·s
342.75 K, 5020 kPa	–	5.764 mPa·s and 5.765 mPa·s
342.75 K, 9990 kPa	–	5.9 mPa·s and 5.894 mPa·s and 5.912 mPa·s
342.75 K, 10000 kPa	–	5.925 mPa·s
342.75 K, 20270 kPa	–	6.257 mPa·s and 6.245 mPa·s
342.75 K, 20280 kPa	–	6.256 mPa·s and 6.268 mPa·s
342.75 K, 30150 kPa	–	6.641 mPa·s [middle of 6 runs]
342.75 K, 39690 kPa	–	6.989 mPa·s
342.75 K, 39700 kPa	–	6.991 mPa·s
342.75 K, 39710 kPa	–	6.946 mPa·s and 6.939 mPa·s and 6.957 mPa·s
342.75 K, 50090 kPa	–	7.319 mPa·s [middle of 6 runs]
342.75 K, 70440 kPa	–	8.133 mPa·s
342.75 K, 70450 kPa	–	8.148 mPa·s
342.75 K, 70460 kPa	–	8.145 mPa·s
342.75 K, 70480 kPa	–	8.152 mPa·s
342.75 K, 70500 kPa	–	8.131 mPa·s
342.75 K, 70510 kPa	–	8.177 mPa·s
343.15 K, 100 kPa	1079.7 kg/m3	–
343.15 K, 670 kPa	1080 kg/m3	–
343.15 K, 1100 kPa	1080.2 kg/m3	–
343.15 K, 1520 kPa	1080.4 kg/m3	–
343.15 K, 2120 kPa	1080.7 kg/m3	–
343.15 K, 3060 kPa	1081.2 kg/m3	–
343.15 K, 5040 kPa	1082.3 kg/m3	–
343.15 K, 6970 kPa	1083.3 kg/m3	–
343.15 K, 9950 kPa	1084.8 kg/m3	–
343.15 K, 14870 kPa	1087.3 kg/m3	–
343.15 K, 19740 kPa	1089.6 kg/m3	–
343.15 K, 24710 kPa	1092.1 kg/m3	–
343.15 K, 29560 kPa	1094.4 kg/m3	–
343.15 K, 34490 kPa	1096.6 kg/m3	–
343.15 K, 39350 kPa	1098.8 kg/m3	–
343.15 K, 44290 kPa	1101 kg/m3	–
343.15 K, 49180 kPa	1103.1 kg/m3	–
343.15 K, 54070 kPa	1105.2 kg/m3	–
343.15 K, 58980 kPa	1107.3 kg/m3	–
343.15 K, 63910 kPa	1109.3 kg/m3	–
343.15 K, 68720 kPa	1111.2 kg/m3	–
353.15 K, 100 kPa	1072.2 kg/m3	–
353.15 K, 560 kPa	1072.5 kg/m3	–
353.15 K, 1090 kPa	1072.8 kg/m3	–
353.15 K, 1550 kPa	1073 kg/m3	–
353.15 K, 2080 kPa	1073.3 kg/m3	–
353.15 K, 3040 kPa	1073.8 kg/m3	–
353.15 K, 5060 kPa	1074.9 kg/m3	–
353.15 K, 7020 kPa	1076 kg/m3	–
353.15 K, 9970 kPa	1077.5 kg/m3	–
353.15 K, 14830 kPa	1080.1 kg/m3	–
353.15 K, 19740 kPa	1082.6 kg/m3	–
353.15 K, 24680 kPa	1085.1 kg/m3	–
353.15 K, 29560 kPa	1087.5 kg/m3	–
353.15 K, 34550 kPa	1089.8 kg/m3	–
353.15 K, 39420 kPa	1092.1 kg/m3	–
353.15 K, 44280 kPa	1094.3 kg/m3	–
353.15 K, 49230 kPa	1096.5 kg/m3	–
353.15 K, 54110 kPa	1098.7 kg/m3	–
353.15 K, 59020 kPa	1100.8 kg/m3	–
353.15 K, 64010 kPa	1102.9 kg/m3	–
353.15 K, 68770 kPa	1104.8 kg/m3	–
362.81 K, 230 kPa	–	3.458 mPa·s [middle of 4 runs]
362.81 K, 240 kPa	–	3.444 mPa·s
362.81 K, 1070 kPa	–	3.462 mPa·s and 3.469 mPa·s
362.81 K, 2190 kPa	–	3.473 mPa·s and 3.514 mPa·s and 3.458 mPa·s
362.81 K, 5080 kPa	–	3.546 mPa·s [middle of 5 runs]
362.81 K, 9970 kPa	–	3.652 mPa·s [middle of 4 runs]
362.81 K, 20040 kPa	–	3.834 mPa·s
362.81 K, 20050 kPa	–	3.862 mPa·s and 3.82 mPa·s and 3.837 mPa·s
362.81 K, 30200 kPa	–	4.039 mPa·s
362.81 K, 30210 kPa	–	4.007 mPa·s
362.81 K, 40240 kPa	–	4.264 mPa·s and 4.237 mPa·s
362.81 K, 40250 kPa	–	4.205 mPa·s and 4.242 mPa·s
362.81 K, 50100 kPa	–	4.435 mPa·s
362.81 K, 50110 kPa	–	4.47 mPa·s and 4.453 mPa·s
362.81 K, 69940 kPa	–	4.921 mPa·s
362.81 K, 69950 kPa	–	4.913 mPa·s
362.81 K, 70000 kPa	–	4.894 mPa·s
362.81 K, 70020 kPa	–	4.924 mPa·s
363.08 K, 100 kPa	1064.5 kg/m3 and 1064.4 kg/m3	–
363.08 K, 620 kPa	1064.7 kg/m3	–
363.08 K, 1110 kPa	1065 kg/m3	–
363.08 K, 1570 kPa	1065.2 kg/m3	–
363.08 K, 2100 kPa	1065.5 kg/m3	–
363.08 K, 3020 kPa	1066 kg/m3	–
363.08 K, 5070 kPa	1067.2 kg/m3	–
363.08 K, 7000 kPa	1068.3 kg/m3	–
363.08 K, 9970 kPa	1069.9 kg/m3	–
363.08 K, 14840 kPa	1072.6 kg/m3	–
363.08 K, 19750 kPa	1075.1 kg/m3	–
363.08 K, 24660 kPa	1077.7 kg/m3	–
363.08 K, 29610 kPa	1080.2 kg/m3	–
363.08 K, 34480 kPa	1082.6 kg/m3	–
363.08 K, 39400 kPa	1084.9 kg/m3	–
363.08 K, 44290 kPa	1087.2 kg/m3	–
363.08 K, 49160 kPa	1089.5 kg/m3	–
363.08 K, 54110 kPa	1091.7 kg/m3	–
363.08 K, 58990 kPa	1093.9 kg/m3	–
363.08 K, 63880 kPa	1096 kg/m3	–
363.08 K, 68760 kPa	1098 kg/m3	–
